In ChEMBL document CHEMBL5113390, “Design, synthesis and antitumor evaluation of novel 1H-indole-2-carboxylic acid derivatives targeting 14-3-3η protein” (Eur J Med Chem, 2022):
pIC50, pKd: −log10 of the molar value.

What was measured:
[1] = system: Bel-7402; assay: Antiproliferative activity against human Bel-7402 cells assessed as reduction in cell viability incubated for 72 hrs by MTT assay; format: functional, cell-based; settings: Bel-7402, 72 h
[2] = system: SMMC-7721; assay: Antiproliferative activity against human SMMC-7721 cells assessed as reduction in cell viability incubated for 72 hrs by MTT assay; format: functional, cell-based; settings: SMMC-7721, 72 h
[3] = system: SNU-387; assay: Antiproliferative activity against human SNU-387 cells assessed as reduction in cell viability incubated for 72 hrs by MTT assay; format: functional, cell-based; settings: SNU-387, 72 h
[4] = system: HepG2; assay: Antiproliferative activity against human HepG2 cells assessed as reduction in cell viability incubated for 72 hrs by MTT assay; format: functional, cell-based; settings: HepG2, 72 h
[5] = system: Hep 3B2; assay: Antiproliferative activity against human Hep3B cells assessed as reduction in cell viability incubated for 72 hrs by MTT assay; format: functional, cell-based
[6] = system: Bel7402/5-FU; assay: Antiproliferative activity against human BEL-7402/5-FU cells overexpressing 14-3-3 eta assessed as reduction in cell viability incubated for 72 hrs by MTT assay; format: functional, cell-based
[7] = target: T1, 14-3-3 protein eta (Homo sapiens, UniProt Q04917); assay: Binding affinity to 14-3-3 eta (unknown origin) assessed as dissociation constant by biolayer interferometry assay
T1 sequence (Q04917 whole entry): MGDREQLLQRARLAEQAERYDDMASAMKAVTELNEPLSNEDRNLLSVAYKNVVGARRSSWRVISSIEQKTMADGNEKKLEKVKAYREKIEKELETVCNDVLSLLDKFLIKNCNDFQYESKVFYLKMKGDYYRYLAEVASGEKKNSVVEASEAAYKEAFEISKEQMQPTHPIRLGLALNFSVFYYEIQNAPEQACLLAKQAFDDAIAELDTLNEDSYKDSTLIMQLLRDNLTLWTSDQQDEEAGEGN

SMILES	pIC50 [1]	pIC50 [2]	pIC50 [3]	pIC50 [4]	pIC50 [5]	pIC50 [6]	pKd [7]
COc1ccc(Cn2c(C(=O)O)c(CNCc3cccc(O)c3)c3ccc(C(C)C)cc32)cc1	5.03	5.30	5.16	5.31	5.18	4.82	4.66
COc1cccc(CNCc2c(C(=O)O)n(Cc3ccccc3)c3ccccc23)c1	< 4.30						
COc1ccc(Cn2c(C(=O)O)c(CNCc3ccc(O)c(OC)c3)c3ccccc32)cc1	< 4.30						3.85
COc1cccc(CNCc2c(C(=O)O)n(Cc3ccc(F)cc3)c3ccccc23)c1	< 4.30						3.80
COc1cccc(CNCc2c(C(=O)O)n(Cc3ccc(O)cc3)c3ccccc23)c1	< 4.30						
COc1ccc(Cn2c(C(=O)O)c(CN(C)Cc3cccc(OC)c3)c3ccc(C)cc32)cc1	4.48	4.96	4.70	4.81	4.84	5.13	< 3.70
CCNC(=O)c1c(CNCc2ccc(OC)cc2)c2ccccc2n1Cc1ccc(OC)cc1	4.23						
COc1cccc(CNCc2c(C(=O)O)n(Cc3ccccc3)c3cc(C)ccc23)c1	4.90	5.33	5.09	5.28	5.14	4.92	
COc1ccc(Cn2c(C(=O)O)c(CNCc3cccc(OC)c3)c3ccccc32)cc1	4.28						
COc1cccc(CNCc2c(C(=O)O)n(Cc3ccccc3F)c3ccccc23)c1	< 4.30						
CNC(=O)c1cc(Oc2ccc(NC(=O)Nc3ccc(Cl)c(C(F)(F)F)c3)cc2)ccn1 [SORAFENIB]	5.22	5.31	4.91	5.48	5.26	4.88	
COc1cccc(CNCc2c(C(=O)O)n(Cc3ccccc3F)c3cc(C(C)C)ccc23)c1	5.25	5.49	5.22	5.48	5.28	5.28	4.43
COc1ccc(Cn2c(C(=O)O)c(CNC(=O)c3cccc(OC)c3)c3ccc(C)cc32)cc1	< 4.30						4.25
COc1cccc(CNCc2c(C(=O)O)n(Cc3ccc(O)cc3)c3cc(C)ccc23)c1	< 4.30						
COc1ccc(Cn2c(C(=O)O)c(CNCc3ccc(O)c(OC)c3)c3ccc(C(C)C)cc32)cc1	5.08	5.23	5.27	5.44	5.33	5.10	
COc1cccc(CNCc2c(C(=O)O)n(Cc3ccccc3F)c3cc(C)ccc23)c1	< 4.30						< 3.70
COc1ccc(Cn2c(C(=O)O)c(CNCc3cccc(OC)c3)c3ccc(C)cc32)cc1	5.01						
COc1cccc(CNCc2c(C(=O)O)n(Cc3ccc(N)cc3)c3cc(C(C)C)ccc23)c1	5.02	4.95	5.05	5.13	4.95	< 4.30	
COc1ccc(Cn2c(C(=O)O)c(CNCc3cccc(O)c3)c3ccccc32)cc1	< 4.30						
COc1ccc(Cn2c(C(=O)O)c(CNCc3cccc(O)c3)c3ccc(C)cc32)cc1	4.70	4.46	5.00	5.34	4.93	< 4.30	
COc1cccc(CNCc2c(C(=O)O)n(Cc3ccccc3)c3cc(C(C)C)ccc23)c1	5.23	5.45	5.29	5.50	5.39	5.23	4.26
COc1cccc(CNCc2c(C(=O)O)n(Cc3ccc(C)cc3)c3ccccc23)c1	4.67	5.20	4.84	4.86	4.84	5.03	
O=[As][As+](=O)[O-] (centres undefined) [ARSENIC TRIOXIDE]							3.96
COc1ccc(Cn2c(C(=O)O)c(CNCc3ccc(O)c(OC)c3)c3ccc(C)cc32)cc1	4.88	5.11	5.21	5.43	5.09	< 4.30	< 3.70
COc1cccc(CNCc2c(C(=O)O)n(Cc3ccc(C)cc3)c3cc(C)ccc23)c1	5.25	5.46	5.28	5.30	5.20	5.14	
COc1cccc(CNCc2c(C(=O)O)n(Cc3ccc(O)cc3)c3cc(C(C)C)ccc23)c1	5.15	5.43	5.29	5.79	5.27	< 4.30	4.13
COc1ccc(Cn2c(C(=O)O)c(CNCc3cccc(OC)c3)c3ccc(C(F)(F)F)cc32)cc1	< 4.30						
COc1ccc(Cn2c(C(=O)O)c(CNCc3cccc(OC)c3)c3ccc(C(F)F)cc32)cc1	< 4.30						
COc1ccc(Cn2c(C(=O)O)c(CNCc3cc(OC)ccc3O)c3ccc(C)cc32)cc1	< 4.30						
